Common to all, as to type: cell-based
The subject of assay [1] is Staphylococcus aureus ATCC 25923. In words: Minimal inhibition concentration (dilution + diffusion-well). Conditions: ATCC25923, 37 °C, 18 h. The method, then:
The MIC was performed for compounds and strains sensitive to their action in the antagonistic test. Minimum inhibitory concentration was determined by combining the dilution method with the diffusion-well method. Test compounds at a concentration of 500 μM were prepared in 5% (w/w) DMSO. Surface layer of microorganisms, against which antagonistic activity was noted, were prepared in the same way as for the antagonistic test. Then, two-fold sequential dilutions of the test compounds in the range of 500 µM to 62.5 µM were prepared. Wells with a diameter of 8 mm cut in the Mueller–Hinton Agar (Merck, Darmstadt, Germany) with the test strain were added with 50 µL of the prepared dilutions, which corresponded to the following concentrations of the tested compounds: […], 1.25 mM, 0.625 mM, and […]. Petri dishes prepared in this way were incubated at 37 °C for 18 h. After a given time, the MIC value was read. The MIC concentration expressed in µM was the first concentration of the tested compounds at which growth inhibition of the test strain was observed.

Assay [2] relates to Salmonella Choleraesuis ATCC 7001. Kind of assay: Antagonistic activity, diffusion-well method. The conditions noted are these: Salmonella enterica, compounds at 2.5 µM, wells 8 mm, 37 °C, 18 h. On the procedure: (§1) The antimicrobial activity of the HESP, ligands ([…], and HTSC), and complexes with HP-β-CD were tested against Gram-positive bacteria (Listeria monocytogenes ATCC 19111, Listeria monocytogenes ATCC 19112, Listeria monocytogenes ATCC 19115, Staphylococcus aureus ATCC 29737, Staphylococcus aureus ATCC 25923, Staphylococcus aureus ATCC 27734) and Gram-negative bacteria (Escherichia coli ATCC 11303, Escherichia coli ATCC 35218, Salmonella Typhimurium, ATCC 14028, Salmonella Enteritidis ATCC 13076, Salmonella Choleraesuis ATCC 7001). The strains were activated from cryobanks by passaging them twice onto a Nutrient Broth (Merck, Darmstadt, Germany). All bacteria were grown for 24 h at 37 °C. Antagonistic activity of the following chemical compounds: […], and […] determined by the diffusion-well method. The test strains were plated on Mueller-Hinton Agar (Merck, Darmstadt, Germany) in the form of a surface layer of bacteria according to the procedures recommended by the European Committee on Antimicrobial Susceptibility Testing EUCAST [74]. The detailed methodology was described in the paper by Sykuła et al.. Bacterial inoculum was prepared from an overnight solid culture. The inoculum density was 1-2 × 10^8 CFU/mL, which corresponds to a McFarland standard of 0.5. The samples of the test compounds were dissolved in 5% (w/w) DMSO to obtain a concentration of 500 μM, and were sterilized using filtration (filter pore width 0.2 μm; (Sartorius AG, Gottingen, Germany). The bacteria inoculum test culture (0.1 mL) smear conducted was on sterile Mueller-Hinton Agar (Merck, Darmstadt, Germany) plates. […] A total of 50 μL of the prepared solutions of the tested compounds at a concentration of 500 μM were added to the wells. The plates prepared in this way were incubated at 37 °C for 18 h. After this time, zones of growth inhibition were read and the result was given in mm. The experiment was carried out in two independent repetitions. The results were expressed in average values and standard deviation. The results were analyzed using a one-way ANOVA and post-hoc Tukey's test.

The test system of assay [3] is Salmonella Typhimurium ATCC 14028. In words: Antagonistic activity, diffusion-well method. Conditions: Salmonella enterica, compounds at 2.5 µM, wells 8 mm, 37 °C, 18 h. The method, then: as §1
The test system of assay [4] is Staphylococcus aureus ATCC 27734. In words: Antagonistic activity, diffusion-well method. Conditions: ATCC27734, compounds at 2.5 µM, wells 8 mm, 37 °C, 18 h. The method, then:
as §1

For assay [5], the system named is Listeria monocytogenes ATCC 19111. Kind of assay: Antagonistic activity, diffusion-well method. Conditions: ATCC19111, compounds at 2.5 µM, wells 8 mm, 37 °C, 18 h. On the procedure:
as §1

In assay [6] the test system is Salmonella Enteritidis ATCC 13076. In words: Antagonistic activity, diffusion-well method. Conditions: Salmonella enterica, compounds at 2.5 µM, wells 8 mm, 37 °C, 18 h. On the procedure: as §1
Assay [7] has as its system Listeria monocytogenes ATCC 19112. In words: Antagonistic activity, diffusion-well method. Conditions: ATCC19112, compounds at 2.5 µM, wells 8 mm, 37 °C, 18 h. The method, then:
as §1

Assay [8] relates to Listeria monocytogenes ATCC 19115. In words: Antagonistic activity, diffusion-well method. The conditions noted are these: ATCC19115, compounds at 2.5 µM, wells 8 mm, 37 °C, 18 h. On the procedure: as §1

SMILES strings stand for the structures.

Take `COc1ccc(C2C/C(=N\NC(=O)c3ccccc3)c3c(O)cc(O)cc3O2)cc1O` (racemic) [HHSB]: in assay [1], the MIC was found to be 2.5 µM. Besides, the zone of inhibition at 2.5 µM in assay [2], in assay [3], in assay [4], in assay [5], in assay [6] and in assay [7] was 0 mm in each case. This molecule displayed a zone of inhibition at 2.5 µM in assay [8] of 0 mm.
Take `COc1ccc(C2C/C(=N\NC(=O)c3ccncc3)c3c(O)cc(O)cc3O2)cc1O` (racemic) [HIN]: the MIC in assay [1] worked out at 2.5 µM. Moreover, the zone of inhibition at 2.5 µM in assay [2], in assay [3], in assay [4], in assay [5], in assay [6] and in assay [7] was 0 mm each time. In assay [8], the zone of inhibition at 2.5 µM came to 0 mm.
As to `COc1ccc(C2CC(=NNC(N)=S)c3c(O)cc(O)cc3O2)cc1O` (stereo not shown) [HTSC, N-[2,3-dihydro-5,7-dihydroxy-2-(3-hydroxy-4-methoxyphenyl)chromen-4-ylidene]thiosemicarbazide], the minimum inhibitory concentration (MIC) in assay [1] turned out to be 1.25 µM. The zone of inhibition at 2.5 µM in assay [2], in assay [3], in assay [4], in assay [5], in assay [6] and in assay [7] was 0 mm throughout. The molecule also displayed a zone of inhibition at 2.5 µM in assay [8] of 0 mm.
As for `COc1ccc(C2CC(=O)c3c(O)cc(O)cc3O2)cc1O` (stereo not shown) [Hesperetin, 3′,5,7-Trihydroxy-4′-methoxyflavanone], the zone of inhibition at 2.5 µM in assay [2], in assay [3], in assay [4], in assay [5], in assay [6] and in assay [7] was 0 mm each time. The molecule also yielded a zone of inhibition at 2.5 µM in assay [8] of 0 mm.

The values are drawn from paper PMC10574185, “Encapsulation and Biological Activity of Hesperetin Derivatives with HP-β-CD” (Molecules, 2023).
